Literature values in PMC8711005, “Phase 1 Dose-Escalation Study of Plasma Kallikrein Inhibitor THR-149 for the Treatment of Diabetic Macular Edema” (Translational Vision Science & Technology, 2021).

Test system: subjects with center-involved DME
Details: single IVT injection, 14 subjects with center-involved DME, Month 3
Description: A recent phase I study of another PKal inhibitor, KVD001, enrolled 14 subjects with center-involved DME who had received prior anti-VEGF treatment.[30] Baseline demographics were similar to those in the current study, with some notable differences in baseline ocular characteristics, including higher baseline BCVA and lower CST relative to those enrolled in our study. The maximum BCVA increase following a single IVT injection of KVD001 was 4.1 ETDRS letters at Month 3, with a corresponding mean reduction of 23 µm in CST. Rescue treatment was allowed; however, the frequency and imputation method ...

CCOc1ccc(C[C@@H](NC(=O)c2ccccc2)C(=O)N[C@@H](Cc2ccccc2)C(=O)NCc2ccc(CN)cc2)cc1 [KVD001]
Maximum BCVA increase: 4.1 ETDRS letters
Mean reduction in CST: 23 µm
